Test results reported in paper PMC5458211, “Mitochondrial VDAC1-based peptides: Attacking oncogenic properties in glioblastoma” (Oncotarget, 2017).
Non-standard residues stand in square brackets, D forms with d. Residues, ends and D or L forms follow the SMILES beside them.

Key:
[1] = tested on: primary brain cells (PBCs); experiment: Cell death by PI staining and flow cytometry, primary brain cells; assay type: cell-based; settings: mouse PBCs, 6 h at 37°C, serum-free medium, PI staining; Fig 1I-1K
Description: (§1) Figure 1 VDAC1-based peptides induce dramatic cell death of several brain tumor-derived cell lines but to lesser extent in primary brain cells A. IHC staining of VDAC1 of human normal brain (n=13) or glioblastoma (n=41) in tissue array slides (Biomax), as described in Materials and methods available online in Supplemental information. Percentages of sections stained at the intensity indicated are shown. […] The VDAC1-derived sequences Δ(1-14)N-terminus and LP4 are in green and pink, respectively. The cell-penetrating peptides Antp and Tf are in orange and blue, respectively. The loop shape of LP4 stabilized by a tryptophan zipper is in purple. The amino acids of Δ(1-14)N-terminus, LP4 and Antp are in the D configuration. The sequences of D-LP4 and Retro-D-LP4 are presented below. C. Immunoblot analysis of VDAC1, HK-I, Bcl-2 and Transferrin receptor (TfR) expression in brain tumor-derived cell lines using specific antibodies, as described in Materials and methods available online in Supplemental information. […] Cells were harvested, washed twice with PBS and cell death was analyzed by propidium iodide (PI) staining and flow cytometry. H. IC50 values (μM) for pepdide inducing cell death as derived from D-G. The results shown correspond to means ± SD (n=3). […] Cells were harvested, washed twice with PBS and cell death was analyzed by PI staining and flow cytometry. […]
Cells (6×10^5 /ml) were incubated in 500 μl serum-free medium with the peptide of interest for 6 h at 37°C in the presence of 5% CO2. The cells were then trypsinized, centrifuged (1500xg, 5 min), washed with PBS and analyzed for cell death using propidium iodide (PI) staining and flow cytometer (Beckton-Dickinson, San Jose, CA) and BD CellQuest Pro software. Apoptotic cell death was also analyzed by PI and annexin V-FITC staining, and by acridine orange and ethidium bromide staining and light microscopy (Olympus LX2-KSP).

Ki-67 = Ki-67 immunohistochemistry of xenograft tumors; assay type: in vivo, human U-87MG in nude mice; settings: s.c. U-87MG tumors, 20 μM intra-tumoral, n=5
Protocol: Figure 3 VDAC1-based peptides inhibit tumor growth, cell proliferation, and invasion in a glioblastoma xenograft mice model A. Graphical representation of the xenograft experiment protocol used. U-87MG cells (3×10^6/mouse) were inoculated into male nude mice as described in Materials and Methods available online in Supplemental information. B, C. […] The calculated average tumor volumes are presented as means ± SE (n=5) (* p≤0.05, ** p≤0.01). C. The volume of peptide-treated tumors is presented as % of control for each indicated time. Results = mean ± SE (n=5) (* p≤0.05, ** […]). […] E. Quantitative analysis of Ki-67 positive cells. Results = mean ± SE (n=5) (*** p<0.001). […]
100% DMSO and then diluted 20-fold with sterile DDW into three groups (6 animals/group) and treated every to reach a concentration of 25 mg/ml in a final DMSO third day with DMSO (1.44%), Retro-Tf-D-LP4 (10 concentration of 5%. PLGA (50 mg) was dissolved in mg/kg) or Retro-Tf-D-LP4 (10 mg/kg) encapsulated by acetone (1 ml). […] Tumor volume was analyzed using VivoQuant 2.10 10 ml of aqueous solution containing 1% PVA (w/v). […]
(Calbiochem, UK). […] Band intensities were analyzed xenografts were injected 20 µl per tumor (2 points) every by densitometry using Multi Gauge software (Fujifilm) […]

U-118MG cells = experiment: Cell death by PI staining and flow cytometry, U-118MG; assay type: cell-based, human; settings: 6 h at 37°C, serum-free medium, means ± SD (n=3), Fig 1H, read-out: IC50 for inducing cell death
Description: as §1, with “C.” for “C. Immunoblot analysis of VDAC1, HK-I, Bcl-2 and Transferrin receptor (TfR) expression in brain tumor-derived cell lines using specific antibodies, as described in Materials and methods available online in Supplemental information.”, “cytometry.” for “cytometry. H. IC50 values (μM) for pepdide inducing cell death as derived from D-G. The results shown correspond to means ± SD (n=3).”
Cells (6×10^5 /ml) were incubated in 500 μl serum-free medium with the peptide of interest for 6 h at 37°C in the presence of 5% CO2. The cells were then trypsinized, centrifuged (1500xg, 5 min), washed with PBS and analyzed for cell death using propidium iodide (PI) staining and flow cytometer (Beckton-Dickinson, San Jose, CA) and BD CellQuest Pro software. […]

CC[C@@H](C)[C@@H](NC(=O)[C@@H](CCCCN)NC(=O)[C@H](NC(=O)[C@@H](CCC(N)=O)NC(=O)[C@@H](CCCNC(=N)N)NC(=O)[C@@H](CC(C)C)NC(=O)CNC(=O)[C@@H](Cc1ccccc1)NC(=O)CNC(=O)[C@@H](Cc1ccc(O)cc1)NC(=O)CNC(=O)[C@@H](CCCCN)NC(=O)[C@H](NC(=O)[C@@H](Cc1ccccc1)NC(=O)[C@H](NC(=O)[C@@H](CC(=O)O)NC(=O)[C@H](N)CCCNC(=N)N)C(C)C)[C@H](C)O)[C@H](C)CC)C(=O)N[C@H](Cc1c[nH]c2ccccc12)C(=O)N[C@H](Cc1ccccc1)C(=O)N[C@H](CCC(N)=O)C(=O)N[C@H](CC(N)=O)C(=O)N[C@H](CCCNC(=N)N)C(=O)N[C@H](CCCNC(=N)N)C(=O)N[C@H](CCSC)C(=O)N[C@H](CCCCN)C(=O)N[C@H](Cc1c[nH]c2ccccc12)C(=O)N[C@H](CCCCN)C(=O)N[C@H](CCCCN)C(=O)O [D-ΔN-Ter-Antp] (H-[dR][dD][dV][dF][dT][dK]G[dY]G[dF]G[dL][dR][dQ][dI][dK][dI][dW][dF][dQ][dN][dR][dR][dM][dK][dW][dK][dK]-OH; N-terminus and C-terminus assumed)
cell death in primary brain cells as compared to U-87MG cells [1]: lesser extent
decrease in Ki-67-positive cell numbers (Ki-67): about 45%
IC50 (U-118MG cells): 5 ± 0.6 µM

CC[C@H](C)[C@H](NC(=O)[C@H](Cc1ccc(O)cc1)NC(=O)[C@@H]1CCCN1C(=O)[C@H](CCCNC(=N)N)NC(=O)[C@H](Cc1c[nH]cn1)NC(=O)[C@H](CO)NC(=O)[C@H](Cc1c[nH]c2ccccc12)NC(=O)[C@@H](NC(=O)[C@H](Cc1c[nH]c2ccccc12)NC(=O)[C@H](CCC(=O)O)NC(=O)[C@@H](CCCCN)NC(=O)[C@@H](CCCCN)NC(=O)[C@@H](CC(C)C)NC(=O)[C@@H](CCC(=O)O)NC(=O)[C@H](NC(=O)[C@@H](C)NC(=O)[C@H](NC(=O)[C@@H](CC(N)=O)NC(=O)[C@@H](CC(C)C)NC(=O)[C@@H](C)NC(=O)[C@@H](Cc1c[nH]c2ccccc12)NC(=O)[C@H](NC(=O)[C@@H](C)NC(=O)CNC(=O)[C@@H](CC(N)=O)NC(=O)[C@@H](CO)NC(=O)[C@@H](CC(N)=O)NC(=O)[C@H](CCCCN)NC(=O)[C@H](Cc1c[nH]c2ccccc12)NC(=O)[C@@H](NC(=O)[C@H](Cc1c[nH]c2ccccc12)NC(=O)[C@@H](N)CCCCN)[C@@H](C)O)[C@H](C)O)C(C)C)[C@H](C)O)[C@@H](C)O)C(=O)N[C@@H](C)C(=O)N[C@@H](Cc1c[nH]cn1)C(=O)O [Retro-Tf-D-LP4]
cell death in primary brain cells as compared to U-87MG cells [1]: lesser extent

CC[C@H](C)[C@H](NC(=O)[C@H](C)NC(=O)[C@@H](N)Cc1c[nH]cn1)C(=O)N[C@@H](Cc1ccc(O)cc1)C(=O)N1CCC[C@H]1C(=O)N[C@@H](CCCNC(=N)N)C(=O)N[C@@H](Cc1c[nH]cn1)C(=O)N[C@@H](CO)C(=O)N[C@@H](Cc1c[nH]c2ccccc12)C(=O)N[C@H](C(=O)N[C@@H](Cc1c[nH]c2ccccc12)C(=O)N[C@@H](CCC(=O)O)C(=O)N[C@H](CCCCN)C(=O)N[C@H](CCCCN)C(=O)N[C@H](CC(C)C)C(=O)N[C@H](CCC(=O)O)C(=O)N[C@@H](C(=O)N[C@H](C)C(=O)N[C@@H](C(=O)N[C@H](CC(N)=O)C(=O)N[C@H](CC(C)C)C(=O)N[C@H](C)C(=O)N[C@H](Cc1c[nH]c2ccccc12)C(=O)N[C@@H](C(=O)N[C@H](C)C(=O)NCC(=O)N[C@H](CC(N)=O)C(=O)N[C@H](CO)C(=O)N[C@H](CC(N)=O)C(=O)N[C@@H](CCCCN)C(=O)N[C@@H](Cc1c[nH]c2ccccc12)C(=O)N[C@H](C(=O)N[C@@H](Cc1c[nH]c2ccccc12)C(=O)N[C@@H](CCCCN)C(=O)O)[C@@H](C)O)[C@H](C)O)C(C)C)[C@H](C)O)[C@@H](C)O [Tf-D-LP4]
cell death in primary brain cells as compared to U-87MG cells [1]: lesser extent
decrease in Ki-67-positive cell numbers (Ki-67): about 45%
IC50 (U-118MG cells): 1.7 ± 0.3 µM
